We go through 13 compounds from patent publication EP0692191A1, “UTILIZATION OF PHENYL COMPOUNDS FOR THE CONTROL OF PHYTOPARASITE NEMATODES” (UNIVERSIDAD DE LA LAGUNA, priority 1993, dated 1995).

“And” between values parts separate entries of the source, which are not always exact repeats. Equal values may be shown once. Read-outs that look alike come from different tables or passages of the source. Marks after values point to notes of the source that are not given here.

In one data set the test system is Mäusen. The settings on record: mouse, in vivo; cited from earlier work.
In data set [1] the test system is Globodera rostochinesis und Globodera pallida. The experiment in a line: Nematicidal effect: lethal concentrations on second-stage juveniles, 24 h (Example 1). The conditions noted are these: for LC50: read-out: CL50; for EC100: read-out: CL100.
Another data set relates to Ratte. The settings on record: rat, cited from earlier work.
Another data set relates to Albino-Swiss Maus. Description: Acute toxicity in male Albino-Swiss mouse, intraperitoneal (Example 3). The format is in vivo. An excerpt: (§1) Man studierte die Toxizität bei einer männlichen ,Albino-Swiss" Maus mittels der intraperitonealen (i.p.) Anwendung variabler Dosen von trans-1,3-Diphenyl-2-propen-1-on bei 10 […] zur Behandlung. Man wertete die Nummer der toten Tiere nach 24 Stunden der Anwendung und berechnete die Gleichung der Regressionskurve, die die Resultate des Experimentes besser beschreibt. Ausgehend von den Regressionsgleichungen schätzte man dieDL50 und DL0 (Dosen des trans-1,3-Diphenyl-2-propen-1-on ohne offensichtlichen Effekt) bei 24 Stunden. Ebenso schätzte man das Potential der Toxizität (pT) (Luckey und Venugopal, 1977. J. Toxicol. & Envirn. Health. 2:633.)
(§2) Das DL50 schätzte man bei 1494 mg/Kg bei 24 Stunden (Figur 4). Ausgehend von diesen Daten deduzierte man das das trans-1,3-Diphenyl-2-propen-1-on eine leicht toxische Substanz ist mit DL50 schwankend zwischen 0,5 und 5 g/kg (Loomis, 1982. Ed acribia. Zaragoza, 33-43). Der letale Effekt null für trans-1,3-Diphenyl-2-propen-1-on bei 24 Stunden war DL0=653,85 mg/kg.
(§3) Das toxische Potential schätzte man auf pT50=2,14.

Assay in data set [2]: as above
The class given is in vivo, Albino-Swiss Maus. The settings on record: mouse, in vivo, ip, male Albino-Swiss mouse, intraperitoneal, 24 h, estimated from regression curve; read-out: DL50.
Description: as §1, §2, §3

The subject of data set [3] is Musa spp. cv Cavendish ,,Gran enano". Description: Phytotoxicity: banana plants (5.2). The class given is in vivo. An excerpt: Man studierte gleitherweise die Phytotoxizität von trans-1,3-Diphenyl-2-[…] auf Pflanzen der Bananenpflanzung (Musa spp. cv Cavendish ,Gran enano"). Bananenpflanzungen, die drei Monate alt waren und aus einer Kultivierung in vitro stammten, pflanzte man in Holzkübel von 5 l Kapazität mit einem Substrat von 1:1:1 (Torf:Sand:Kies) und ordnete diese zufällig in einem Gewächshaus an. Für dieses Experiment ordnete man 10 Replikatoren zur Behandlung und 5 zur Bekämpfung an. […]

The test system of a further data set is M. javanica. The experiment in a line: Infestation index of tomato roots (1.3). The format is in vivo. The settings on record: index 0 to 5; tomato plants in soil treated as in experiment 1.2; untreated soil ima=4,33. An excerpt:
Man pflanzte Tomatenpflanzen in einer kommerziell erhältlichen Auswahl, anfällig für M. javanica, um die Pflanzen der Bananenpflanzung, die mit trans-1,3-Diphenyl-2-propen-1-on des Experimentes 1.2 behandelt wurde, wie auch um solche, die nicht behandelt wurden. Der Index des Befalles der Wurzeln der Tomate gab uns eine näherungsweise Vorstellung des Niveaus der Infektion mit Nematoden der Wurzelknoten im Feld (Bridge & Page, 1980. Tropical Pest Management, 26:296-298). Zur Klassifikation der angegriffe der Nematoden auf die Wurzeln der Tomate etablierte man einen Index des Befalles von 0 bis 5. Die Pflanzen, die in dem mit trans-1,3-Diphenyl-2-propen-1-on behandeltem Boden wuchsen, erhielten einen mittleren Befallindex (ima) der deutlich kleiner war (ima=3) als derjenige der Pflanzen, die im Boden ohne Behandlung (ima=4,33) wuchsen.

Data set [4] has as its system Globodera rostochienensis und Globodera pallida. Description: Nematostatic effect: inhibition of hatching from cysts (Example 2). The format is in vivo. The conditions noted are these: for activity at 10 µM: im, 360 h, 0,01 mmol, read-out: Bildung von Einschlußkörpern im Verhältnis zur Bekämpfung. An excerpt: Man realisierte ein Experiment, um den Effekt von trans-1,3-Diphenyl-2-propen-1-on bei der Bildung von Einschlußkörpern der Globodera spp. zu sehen. Man setzte 10 Zysten einer gemischten Population der Spezie Globodera rostochienensis und Globodera pallida in Violen mit 2cc einer Lösung, die 10 mmol ZnSO4 als Induktionsmittel der Bildung von Einschlußkörpern enthielt, und eine variable Konzentration von trans-1,3-Diphenyl-2-propen-1-on (0,05, 0,04, 0,03, 0,01 und 0,005 mmol). Die in den vier Replikatoren und in den Bekämpfungen entwickelten Jungen zählte man periodisch während 15 Tagen. Auf der Basis der Regressionskurve, die die Resultate des Experimentes besser beschreibt, schätzte man, was die Anwesenheit von nur 0,007 mmol von trans-1,3-Diphenyl-2-propen-1-on während 15 Tagen ausreichend war, um die Bildung von Einschlußkörpern auf die Hälfte derjenigen der Bekämpfung zu reduzieren.
Nachfolgend und mit dem Ziel zu sehen, ob die Hinderung der Bildung von Einschlußkörpern irreversibel sei, entfernt man die Zysten, wäscht man mit destilliertem Wasser und setzt sie in neue Violen mit 2cc einer Lösung, die lediglich das Induktionsmittel der Bildung von Einschlußkörpern (10 mmol ZnSO4) enthielt. Man fand heraus, das der Bildung von Einschlußkörpern hindernde Effekt des trans-1,3-Diphenyl-2-propen-1-on bei einer Dosis über 0,03 mmol unumkehrbar ist. Die bei der Dosis von 0,01 mmol auftretende Bildung von Einschlußkörpern war deutlich geringer als die der Bekämpfung (37,28%) in den ersten 15 Tagen und praktisch null ( es entwickelten sich lediglich 4,6% im Verhältnis zur Bekämpfung) nach der Herausnahme des trans-1,3-Diphenyl-2-propen-1-on bei 15 Tagen seit Beginn des Experimentes (Figur 3).

In another data set the test system is Meloidogyne javanica. Description: Field effect in a banana plantation greenhouse infested with nematodes (1.2). The format is in vivo. The settings on record: 0,05 mmol solution, 3000 l with irrigation water; soil samples three days later. The source says: Man bereitete 3000 Liter einer Lösung von trans-1,3-Diphenyl-2-propen-1-on 0,05 mmol und verwendete diese am Boden mit dem Wasser der Bewässerung in einem Gewächshaus der Bananenanpflanzung, das von dem phytoparasitischen Nematoden Meloidogyne javanica befallen war. Drei Tage später nahm man Proben des Bodens der behandelten Parzelle und stellte fest, das in den Extraktionen von Nematoden mittels der Methode der Zentrifugation auf Zucker (Extraktion von sowohl lebenden und toten Nematoden) lediglich 25% lebende Larven der M. javanica zu finden waren, sodaß die Behandlung mit trans-1,3-Diphenyl-2-propen-1-on eine Näherungsweiseeffektivität von 75% hatte.

Data set [5] in a line: Brine shrimp assay (Example 4). The conditions noted are these: in vivo, Artemia salina, read-out: CL50. An excerpt: Die Analyse der Toxizität einer Substanz auf eine Salzgarnele Artemia salina (Brine shrimp) vermitteln eine angenäherte Vorstellung der biologischen Aktivität eines Produktes und insbesondere seiner Zytotoxizität.
Das Experiment wurde durchgeführt nach der Methode, die durch Mayer et al., 1982, beschrieben wurde ( Planta Med. 45:31-34), wobei das CL50 bei 24 Stunden für die Garnelen berechnet wird. Man benutzte vier Replikatoren, jeweils mit einer der Konzentrationen von trans-1,3-Diphenyl-2-propen-1-on (0,1, 0,01, 0,001 und 0,0001 mmol) und adäquate Bekämpfungen. Das geschätzte CL50 lag bei 0,0247 mmol, Dosen, die annäherungsweise mit denjenigen übereinstimmen, die für die Larven des zweiten Stadiums der Nematoden der Zyste berechnet wurden (CL50=0,033).

For data set [6] the following is noted: tomato, in vivo.
Data set [7] relates to Kresse (Nasturtium officinale). The experiment in a line: Phytotoxicity: germination and elongation of cress seeds (5.1). The conditions noted are these: for activity at 50 µM / activity at 500 µM: Nasturtium officinale, 168 h.
The test system of data set [8] is Vinca major, Adiantum capillus-veneris, Begonia rex, Hedera helix. Description: Phytotoxicity: development of laboratory plants (5.2). The format is in vivo. The conditions noted are these: 0,05 mmol with irrigation at field capacity, 50 days, 25°C, 80% relative humidity. As to the method: Die Phytotoxizität der trans-1,3-Diphenyl-2-propen-1-on studierte man im Laboratorium unter Benutzung von Vinca major Pflanzen (8 Pflanzen), Adiantum capillus-veneris (2 Pflanzen), Begonia rex (2 Pflanzen) und Hedera helix (2 Pflanzen), die man an Ort und Stelle zog und in einer Kammer bei 25°C, 80% relativer Luftfeuchtigkeit und 13 Stunden Licht pro Tag kultivierte. Die Hälfte der Pflanzen behandelte man mit einer Dosis von trans-1,3-Diphenyl-2-propen-1-on von 0,05 mmol, das man auf eine Bewässerung mit Feldkapazität anwendete.

The subject of data set [9] is Tomate (Lycopersicum esculentum var. marglobe). The experiment in a line: Phytotoxicity: germination and elongation of tomato seeds (5.1). The settings on record: tomato, 0,05 and 0,5 mmol, statement in words.
Setting [10] is: read-out: TE: Rate der Verlängerung.

Turning to `CNC(=O)O/N=C/C(C)(C)SC` [Aldicarb], in the data set with Mäusen, the DL50 is listed as 0,3 mg/Kg.

On to `CNC(=O)Oc1cccc2c1OC(C)(C)C2` [Carbofurano], for which the DL50 in the data set with Mäusen is 2 mg/kg.

In the case of `CN1CSC(=S)N(C)C1` [Dazomet], the DL50 in the data set on Mäusen was 180 mg/kg.

In the case of `CCOP(=O)(NC(C)C)Oc1ccc(SC)c(C)c1` (centres unmarked) [Fenamifos], in the data set on Mäusen, the DL50 is 22,7 mg/Kg.

For the compound `CNC(=O)ON=C(SC)C(=O)N(C)C` [Oxamilo], the DL50 with Mäusen was 2,3 mg/Kg.

For `CC(=O)C#Cc1ccccc1` [Verbindung 1, 4-Phenyl-3-butin-2-on], in data set [1], the LC50 was 3.7 µM and 0.53 µg/mL; the EC100 was < 50 µM and < 7.21 µg/mL. The “toxischer Effekt” value in the data set with Ratte (56 mg/kg intravenous) is given as “keinen toxischen Effekt”.

Consider `C=CSc1ccccc1` [Verbindung 2, Phenylvinylsulfid], for which the LC50 in [1] is 21 µM and 2.86 µg/mL.

Take `O=C/C=C/c1ccccc1` [Verbindung 3, trans-Zimtaldehyd]: in data set [1], the LC50 was 24 µM and 3.17 µg/mL; the EC100 was < 1000 µM and < 132 µg/mL.

As for `C=C[S+]([O-])c1ccccc1` (centres unmarked) [Verbindung 4, Phenylvinylsulfoxid], in data set [1], the LC50 is 111 µM and 16.9 µg/mL; the EC100 is < 1000 µM and < 152 µg/mL.

For the compound `CC(=O)/C=C/c1ccccc1` [Verbindung 5, trans-4-Phenyl-3-buten-2-on], in data set [1], the LC50 was 168 µM and 24.6 µg/mL; the EC100 is < 1000 µM and < 146 µg/mL. Moreover, in the data set with Ratte (intraperitoneal), the LD50 is 1210 mg/kg. Moreover, the LD50 in the data set with Ratte (intravenous) was 112 mg/kg.

As for `O=C1CCC(c2ccccc2)O1` (centres unmarked) [Verbindung 6, γ-Phenyl-γ-butirolacton], in [1], the LC50 was 282 µM and 45.7 µg/mL; the EC100 is < 1000 µM and < 162 µg/mL.

In the case of `O=C(Cc1ccccc1)Cc1ccccc1` [Verbindung 7, 1,3-Diphenylaceton], in data set [1], the LC50 is 961 µM and 202 µg/mL.

For the compound `O=C(/C=C/c1ccccc1)c1ccccc1` [Verbindung 8, trans-1,3-diphenyl-2-propen-1-on], in [1], the LC50 was 33 µM and 6.86 µg/mL; the EC100 was < 50 µM and < 10.4 µg/mL. Also, the “toxisches Potential pT50” value in the data set with Albino-Swiss Maus (estimated from the mouse i.p. data (Luckey and Venugopal)) is 2,14. Moreover, the “DL0 (letaler Effekt null)” value in the data set with Albino-Swiss Maus (male Albino-Swiss mouse, intraperitoneal, 24 h) is reported as 653,85 mg/kg. Besides, the DL50 with Albino-Swiss Maus (male Albino-Swiss mouse, intraperitoneal, 24 h, estimated from regression curve, 1440 min) is given as 1492*** mg/Kg. Besides, in data set [2], the LD50 at 24 h is 1490 mg/kg. Moreover, the “Effekt auf Pflanzen der Bananenpflanzung” value in data set [3] (0,05 and 0,5 mmol with irrigation water, after 3 months, greenhouse pots) is on record as “keinen Effekt”. In addition, the “Effekt auf Pflanzen der Bananenpflanzung” value in [3] (after 6 months, treated banana plants in the greenhouse of Example 1.2) is recorded as “Ebensowenig stellt man einen Effekt”. Moreover, in the data set with M. javanica, the “mittlerer Befallindex (ima)” value is reported as 3. Moreover, the IC50 in data set [4] (Globodera pallida, 360 h, 15 days exposure, 10 mmol ZnSO4 as hatching inducer, hatching reduced to half of control, read-out: Bildung von Einschlußkörpern hemmende Dosis 50 (DIE50)) worked out at 7 µM. The activity at 10 µM in [4] (Globodera pallida, after removal of the compound at day 15) was 4.6%. Also, in [4] (Globodera pallida, first 15 days), the activity at 10 µM came to 37.3%. Further, the “Bildung von Einschlußkörpern” value in [4] (concentrations of 0,03 mmol and more, 15 days) is reported as “hörte die Bildung von Einschlußkörpern völlig auf”. Further, the “Reversibility of the hatching-inhibiting effect” value in [4] (dose above 0,03 mmol, cysts washed and placed in 10 mmol ZnSO4 only) was “unumkehrbar”. Also, in the data set with Meloidogyne javanica, the Näherungsweiseeffektivität is recorded as approximately 75% and the “lebende Larven der M. javanica” value amounted to 25%. The LC50 at 24 h in data set [5] came to 24.7 µM. Also, in data set [6] (TE: Rate der Verlängerung), the activity at 168 h, 50 µM was 105% and the activity at 168 h, 500 µM was determined as 89.2%. In addition, in data set [6] (TG: Rate der Keimung), the activity at 168 h, 50 µM came out at 103% and the activity at 168 h, 500 µM is 100%. In data set [7] (setting [10]), the activity at 50 µM was 97.9% and the activity at 500 µM was 18.4%. Also, in data set [7] (read-out: TG: Rate der Keimung), the activity at 50 µM came out at 78.4% and the activity at 500 µM stood at 86.5%. In addition, the “TE: Rate der Verlängerung” value in data set [7] (cress primary root, 0,5 mmol, 7 days, 25°C, percent of control) is given as “deutliche Verminderung der primären Wurzel”. In data set [7] (cress, 0,5 mmol, 7 days, 25°C, percent of control), the “TG: Rate der Keimung” value is on record as “leichte Verminderung der Keimung”. In data set [8], the “Wachstum und allgemeiner Aspekt der Pflanzen” value was “keine Unterschiede im Wachstum oder im allgemeinen Aspekt”. In addition, in data set [9], the “Rate der Keimung” value is reported as “variierte bei der Tomate nicht” and the Verlängerungsrate entry is reported as “variierte bei der Tomate nicht signifikant”.
